In patent US5314819A, “Protein having nitrile hydratase activity obtained from rhizobium, gene encoding the same, and a method for producing amides from nitriles via a transformant containing the gene” (Mitsubishi Kasei Corporation, priority 1992, dated 1994):

test system: AM24 protein; assay: Evaluation of the nitrile hydratase activity of AM24 protein (2): substrate specificity; assay type: biochemical, Rhizobium sp. MCI2643; conditions: activity defined as 100 when acrylonitrile is the substrate; 0.2% (v/v) nitrile solution, 25° C., 5 minutes, pH 7.0; amide measured by HPLC
Description: One volume of the AM24 protein solution (its absorbance was 0.1 at 280 nm) and 4 volumes of 0.5M phosphate buffer, pH 7.0 were mixed together, to which were added 90 volumes of a 0.2% (v/v) solution of a nitrile compound for reaction at 25° C. for 5 minutes. After the reaction, 5 volumes of 1N HCl were added to terminate the reaction, and the resulting solution was then applied to an ODS column for HPLC, to measure the resulting amide compound. As the nitrile compound as the substrate, use was made of acrylonitrile, propionitrile, n-butyronitrile, isobutyronitrile, acetonitrile, chloroacetonitrile, malonamidenitrile, methacrylonitrile, 3-cyanopyridine, benzonitrile, and chrotononitrile.
The relative activity of each substrate is shown in Table 1, provided that the activity is defined as 100 when acrylonitrile is used as a reaction substrate.

SMILES	Specific activity (%) (relative activity of each substrate)
CC=CC#N [Chrotononitrile]	34%
C=C(C)C#N [Methacrylonitrile]	143%
CC(C)C#N [Isobutyronitrile]	28%
N#Cc1ccccc1 [Benzonitrile]	251%
N#CCCl [Chloroacetonitrile]	671%
CC#N [Acetonitrile]	47%
CCC#N [Propionitrile]	59%
CCCC#N [n-Butyronitrile]	152%
C=CC#N [Acrylonitrile]	100%
N#Cc1cccnc1 [3-Cyanopyridine]	9%
N#CCC(N)=O [Malonamidenitrile]	143%

test system: transformant containing the pEAM24X1; assay: Conversion of a nitrile into an amide using the transformant containing pEAM24X1; assay type: cell-based, Escherichia coli DH5 α; conditions: transformant cultured with CoCl2 and IPTG; aqueous 7% acrylonitrile solution, 30° C., 1 hour; HPLC
Description: The transformant containing the pEAM24X1 obtained in Example 7 was cultured overnight at 27° C. in 10 ml of an LB culture medium (containing 50 μg/ml Ampicillin). […] The strain were centrifuged and harvested, washed once in physiological saline, and suspended in 1.6 ml of a phosphate buffer (pH 7.0, 0.1M). 0.32 ml of the suspension was sampled, followed by mixing with 80 μl of an aqueous 7% acrylonitrile solution for reaction at 30° C. for 1 hour. After the termination of the reaction by addition of HCl as described before, the acrylamide and acrylonitrile concentrations in the reaction solution were determined by HPLC.
Thus cobalt is essential for nitrile hydratase activity.

SMILES	conversion of acrylonitrile to acrylamide
C=CC#N [Acrylonitrile]	complete

same assay, conditions: transformant harboring pEAM24X1 cultured in a culture medium without cobalt

SMILES	acrylamide in the reaction solution after termination of the reaction
C=CC#N [Acrylonitrile]	no acrylamide was detected
